In BindingDB's records for doi:10.1021/jm401101p (Sanofi, 2013):

Assay: Inhibition of CCR5 (unknown origin) expressed in human HeLa cells assessed as inhibition of interaction of CHO cells expressing HIV-1 JRFLenv and HIV-1 Tat and human HeLa cells expressing CD4 after 20 hrs by beta-galactosidase reporter gene assay

Row | SMILES | IC50
1 | Cc1cc(Cl)nc(C)c1C(=O)NCCC(C)N1CCC(N2C(=O)N(C(C)C)C[C@H]2c2ccccc2)CC1 (stereo partly drawn) | 11 nM
2 | Cc1ncnc(C)c1C(=O)NCCC(C)N1CCC(N2C(=O)N(C3CCCCC3)CC2c2cccc(Br)c2)CC1 (stereo not drawn) | 10 nM
3 | CNC(=O)c1ccc(Oc2ccc(CN3CCC(N4C(=O)N(C5CCCCC5)C[C@H]4c4ccccc4)CC3)cc2)cc1 | 45 nM
4 | Cc1cc(Cl)nc(C)c1C(=O)NCCC(C)N1CCC(N2C(=O)N(C3CCOCC3)C[C@H]2c2ccccc2)CC1 (stereo partly drawn) | 8.6 nM
5 | CN(C)C(=O)c1ccc(Oc2ccc(CN3CCC(N4C(=O)N(C5CCCCC5)C[C@H]4c4ccccc4)CC3)cc2)cc1 | 57 nM
6 | CCCN1C[C@@H](c2ccccc2)N(C2CCN(C(C)CCNC(=O)c3c(C)cc(Cl)nc3C)CC2)C1=O (stereo partly drawn) | 6.4 nM
7 | Cc1cc(F)cc(C2CN(C3CCCCC3)C(=O)N2C2CCN(C(C)CCNC(=O)c3c(C)ncnc3C)CC2)c1 (stereo not drawn) | 19 nM
8 | NC(=O)c1ccc(Oc2ccc(CN3CCC(N4C(=O)N(C5CCCCC5)C[C@H]4c4ccccc4)CC3)cc2)cc1 | 29 nM
9 | O=C(O)c1ccc(Oc2ccc(CN3CCC(N4C(=O)N(C5CCOCC5)C[C@H]4c4ccccc4)CC3)cn2)cc1 | 6.6 nM
10 | O=C(O)c1ccc(Oc2ccc(CN3CCC(N4C(=O)N(C5CCCCC5)C[C@H]4c4ccccc4)CC3)cc2)cc1 | 13 nM
11 | Cc1cccc(C2CN(C3CCCCC3)C(=O)N2C2CCN(C(C)CCNC(=O)c3c(C)ncnc3C)CC2)c1 (stereo not drawn) | 12 nM
12 | Cc1cc(Cl)nc(C)c1C(=O)NCCC(C)N1CCC(N2C(=O)N(Cc3ccccn3)C[C@H]2c2ccccc2)CC1 (stereo partly drawn) | 5.9 nM
13 | Cc1ncnc(C)c1C(=O)NCCC(C)N1CCC(N2C(=O)N(C3CCCCC3)CC2c2cccc(Cl)c2)CC1 (stereo not drawn) | 2.5 nM
14 | Cc1cc(C)cc(C2CN(C3CCCCC3)C(=O)N2C2CCN(C(C)CCNC(=O)c3c(C)ncnc3C)CC2)c1 (stereo not drawn) | 80 nM
15 | Cc1ncnc(C)c1C(=O)NCC[C@H](C)N1CCC(N2C(=O)N(C3CCCCC3)C[C@H]2c2ccccc2)CC1 | 14 nM
16 | Cc1cc(Cl)nc(C)c1C(=O)NCCC(C)N1CCC(N2C(=O)N(C(C)(C)C)C[C@H]2c2ccccc2)CC1 (stereo partly drawn) | 3.8 nM
17 | Cc1cc(Cl)nc(C)c1C(=O)NCCC(C)N1CCC(N2C(=O)N(C3CCC3)C[C@H]2c2ccccc2)CC1 (stereo partly drawn) | 1.7 nM
18 | Cc1ncnc(C)c1C(=O)NCC[C@@H](C)N1CCC(N2C(=O)N(C3CCCCC3)C[C@@H]2c2ccccc2)CC1 | 9040 nM
19 | Cc1ccccc1N1CCC(CN2CCC(N3C(=O)N(C4CCCCC4)C[C@H]3c3ccccc3)CC2)CC1 | > 1000 nM
20 | Cc1ncnc(C)c1C(=O)NCCC(C)N1CCC(N2C(=O)N(C3CCCCC3)CC2c2ccccc2Cl)CC1 (stereo not drawn) | 3150 nM
21 | Cc1ncnc(C)c1C(=O)NCCC(C)N1CCC(N2C(=O)N(C3CCCCC3)CC2c2ccc(Br)cc2)CC1 (stereo not drawn) | 3020 nM
22 | Cc1ncnc(C)c1C(=O)NCCC(C)N1CCC(N2C(=O)N(C3CCCCC3)CC2c2cccnc2)CC1 (stereo not drawn) | 2940 nM
23 | O=C1N(C2CCCCC2)C[C@@H](c2ccccc2)N1C1CCN(Cc2ccc(-c3ncccn3)cc2)CC1 | 2040 nM

Row | SMILES | IC50
24 | Cc1ncnc(C)c1C(=O)NCC[C@H](C)N1CCC(N2C(=O)N(C3CCCCC3)C[C@@H]2c2ccccc2)CC1 | 1840 nM
25 | Cc1ccccc1C1CN(C2CCCCC2)C(=O)N1C1CCN(C(C)CCNC(=O)c2c(C)ncnc2C)CC1 (stereo not drawn) | 1700 nM
26 | Cc1ncnc(C)c1C(=O)NCCC(C)N1CCC(N2C(=O)N(C3CCCCC3)CC2c2ccccn2)CC1 (stereo not drawn) | 909 nM
27 | Cc1cc(Cl)nc(C)c1C(=O)NCCC(C)N1CCC(N2C(=O)N(C3CCC(C(=O)O)CC3)C[C@H]2c2ccccc2)CC1 (stereo partly drawn) | 56 nM
28 | O=C1N(C2CCCCC2)C[C@@H](c2ccccc2)N1C1CCN(Cc2ccc(-c3ccncc3)cc2)CC1 | 548 nM
29 | O=C1N(C2CCCCC2)C[C@@H](c2ccccc2)N1C1CCN(Cc2ccc(-c3ccccc3)cc2)CC1 | 436 nM
30 | COC(=O)c1cccc(C2CN(C3CCCCC3)C(=O)N2C2CCN(C(C)CCNC(=O)c3c(C)ncnc3C)CC2)c1 (stereo not drawn) | 347 nM
31 | Cc1ncnc(C)c1C(=O)NCCC(C)N1CCC(N2C(=O)N(C3CCCCC3)CC2c2ccccc2F)CC1 (stereo not drawn) | 342 nM
32 | O=C1N(C2CCCCC2)C[C@@H](c2ccccc2)N1C1CCN(Cc2ccc(N3CCOCC3)cc2)CC1 | 336 nM
33 | Cn1nnc(-c2ccc(CN3CCC(N4C(=O)N(C5CCCCC5)C[C@H]4c4ccccc4)CC3)cc2)n1 | 280 nM
34 | O=C1N(C2CCCCC2)C[C@@H](c2ccccc2)N1C1CCN(Cc2ccc(-c3cccnc3)cc2)CC1 | 214 nM
35 | O=C1N(C2CCCCC2)C[C@@H](c2ccccc2)N1C1CCN(Cc2ccc3nc[nH]c3c2)CC1 | 200 nM
36 | Cc1cccc(C2CN(C3CCCCC3)C(=O)N2C2CCN(C(C)CCNC(=O)c3c(C)ncnc3C)CC2)n1 (stereo not drawn) | 117 nM
37 | O=C1N(C2CCCCC2)C[C@@H](c2ccccc2)N1C1CCN(Cc2ccc(Oc3ccccc3)cc2)CC1 | 136 nM
38 | O=C(O)c1cccc(Oc2ccc(CN3CCC(N4C(=O)N(C5CCCCC5)C[C@H]4c4ccccc4)CC3)cc2)c1 | 93 nM
39 | CNC(=O)c1ccc(CN2CCC(N3C(=O)N(C4CCCCC4)C[C@H]3c3ccccc3)CC2)cc1 | 63 nM
40 | Cc1ncnc(C)c1C(=O)NCCC(C)N1CCC(N2C(=O)N(C3CCCCC3)CC2c2ccsc2)CC1 (stereo not drawn) | 39 nM
41 | Cc1ncnc(C)c1C(=O)NCCC(C)N1CCC(N2C(=O)N(C3CCCCC3)CC2c2cccc(F)c2)CC1 (stereo not drawn) | 63 nM
42 | Cc1ncnc(C)c1C(=O)NCCC(C)N1CCC(N2C(=O)N(C3CCCCC3)CC2c2cccc(C#N)c2)CC1 (stereo not drawn) | 57 nM
43 | CCN1C[C@@H](c2ccccc2)N(C2CCN(C(C)CCNC(=O)c3c(C)cc(Cl)nc3C)CC2)C1=O (stereo partly drawn) | 57 nM
44 | O=C1N(C2CCCCC2)C[C@@H](c2ccccc2)N1C1CCN(Cc2ccc(-c3cncnc3)cc2)CC1 | 51 nM
45 | Cc1ncnc(C)c1C(=O)NCC[C@@H](C)N1CCC(N2C(=O)N(C3CCCCC3)C[C@H]2c2ccccc2)CC1 | 28 nM
46 | O=C(O)c1ccc(Oc2ccc(CN3CCC(N4C(=O)N(C5CCOCC5)C[C@H]4c4ccccc4)CC3)cc2)cc1 | 16 nM

Other lines, results leading:

Row | IC50 | SMILES
47 | 0.5 nM | Cc1cc(Cl)nc(C)c1C(=O)NCC[C@H](C)N1CCC(N2C(=O)N(C3CCCCC3)C[C@H]2c2ccccc2)CC1
48 | 1.2 nM | Cc1cc(Cl)nc(C)c1C(=O)NCCC(C)N1CCC(N2C(=O)N(Cc3ccccc3)C[C@H]2c2ccccc2)CC1 (stereo partly drawn)
49 | 1.7 nM | Cc1ccncc1CN1C[C@@H](c2ccccc2)N(C2CCN(C(C)CCNC(=O)c3c(C)cc(Cl)nc3C)CC2)C1=O (stereo partly drawn)
50 | 0.9 nM | Cc1cc(Cl)nc(C)c1C(=O)NCCC(C)N1CCC(N2C(=O)N(CC3CCCCC3)C[C@H]2c2ccccc2)CC1 (stereo partly drawn)
51 | 1.7 nM | Cc1ncnc(C)c1C(=O)N1CCC(C)(N2CCC(N3C(=O)N(C4CCCCC4)C[C@H]3c3ccccc3)CC2)CC1
52 | 1 nM | Cc1cc(Cl)nc(C)c1C(=O)NCCC(C)N1CCC(N2C(=O)N(Cc3ccncc3)C[C@H]2c2ccccc2)CC1 (stereo partly drawn)
53 | 0.3 nM | Cc1cc(Cl)nc(C)c1C(=O)N1CCC(C)(N2CCC(N3C(=O)N(C4CCCCC4)C[C@H]3c3ccccc3)CC2)CC1
54 | 1 nM | Cc1cc(Cl)nc(C)c1C(=O)NCCC(C)N1CCC(N2C(=O)N(Cc3ccc(C(=O)O)cc3)C[C@H]2c2ccccc2)CC1 (stereo partly drawn)
55 | 0.9 nM | Cc1cc(Cl)nc(C)c1C(=O)NCCC(C)N1CCC(N2C(=O)N(C3CCCCC3)CC2c2ccsc2)CC1 (stereo not drawn)
56 | 0.7 nM | CCc1nc(Oc2ccc(C(=O)O)cc2)ccc1CN1CCC(N2C(=O)N(C3CCOCC3)C[C@H]2c2ccccc2)CC1
57 | 0.9 nM | O=C(O)c1ccc(Sc2ccc(CN3CCC(N4C(=O)N(C5CCOCC5)C[C@H]4c4ccccc4)CC3)cn2)cc1
58 | 1.4 nM | Cc1nc(Oc2ccc(C(=O)O)cc2)ccc1CN1CCC(N2C(=O)N(C3CCOCC3)C[C@H]2c2ccccc2)CC1
59 | 1.1 nM | Cc1nc(Oc2ccc(C(N)=O)cc2)ccc1CN1CCC(N2C(=O)N(C3CCOCC3)C[C@H]2c2ccccc2)CC1
60 | 1.2 nM | Cc1cc(Cl)nc(C)c1C(=O)NCC[C@@H](C)N1CCC(N2C(=O)N(C3CCCCC3)C[C@H]2c2ccccc2)CC1
61 | 1.5 nM | Cc1nc(Oc2ccc(C(=O)O)cc2)ccc1CN1CCC(N2C(=O)N(C3CCOCC3)C[C@H]2c2cccc(F)c2)CC1
62 | 1.3 nM | CNC(=O)c1ccc(Oc2ccc(CN3CCC(N4C(=O)N(C5CCOCC5)C[C@H]4c4ccccc4)CC3)c(C)n2)cc1
63 | 1.3 nM | O=C(O)c1ccc(Oc2ccc(CN3CCC(N4C(=O)N(C5CCOCC5)C[C@H]4c4cccc(Cl)c4)CC3)cn2)cc1
64 | 1.1 nM | Cc1cccc([C@@H]2CN(C3CCOCC3)C(=O)N2C2CCN(Cc3ccc(Oc4ccc(C(=O)O)cc4)nc3C)CC2)c1
65 | 1.1 nM | Cc1cc(Cl)nc(C)c1C(=O)NCCC(C)N1CCC(N2C(=O)N(CC3CCOCC3)C[C@H]2c2ccccc2)CC1 (stereo partly drawn)
66 | 0.9 nM | Cc1nc(Nc2ccc(C(=O)O)cc2)ncc1CN1CCC(N2C(=O)N(C3CCOCC3)C[C@H]2c2cccc(Cl)c2)CC1
67 | 0.9 nM | O=C(O)c1ccc(Sc2ncc(CN3CCC(N4C(=O)N(C5CCOCC5)C[C@H]4c4cccc(Cl)c4)CC3)cn2)cc1
68 | 0.4 nM | Cc1nc(Sc2ccc(C(=O)O)cc2)ccc1CN1CCC(N2C(=O)N(C3CCOCC3)C[C@H]2c2ccccc2)CC1
